Test results from ChEMBL document CHEMBL5257023, “Identification of leads for antiproliferative activity on MDA-MB-435 human breast cancer cells through pharmacophore and CYP1A1-mediated metabolism” (Eur J Med Chem, 2016).

What was measured:
CYP1A1 [1] = target: T1, CYP1A1 (Homo sapiens, UniProt P04798); assay: Inhibition of recombinant CYP1A1 (unknown origin) assessed as residual enzyme activity using 7-ethoxyresorufin as substrate at 5 uM incubated for 15 mins by resorufin dye based spectrofluorimetry (reference value: 100%); format: ADME; conditions: recombinant CYP1A1, probe 7-ethoxyresorufin, read-out: Activity
T1 sequence (P04798 whole entry): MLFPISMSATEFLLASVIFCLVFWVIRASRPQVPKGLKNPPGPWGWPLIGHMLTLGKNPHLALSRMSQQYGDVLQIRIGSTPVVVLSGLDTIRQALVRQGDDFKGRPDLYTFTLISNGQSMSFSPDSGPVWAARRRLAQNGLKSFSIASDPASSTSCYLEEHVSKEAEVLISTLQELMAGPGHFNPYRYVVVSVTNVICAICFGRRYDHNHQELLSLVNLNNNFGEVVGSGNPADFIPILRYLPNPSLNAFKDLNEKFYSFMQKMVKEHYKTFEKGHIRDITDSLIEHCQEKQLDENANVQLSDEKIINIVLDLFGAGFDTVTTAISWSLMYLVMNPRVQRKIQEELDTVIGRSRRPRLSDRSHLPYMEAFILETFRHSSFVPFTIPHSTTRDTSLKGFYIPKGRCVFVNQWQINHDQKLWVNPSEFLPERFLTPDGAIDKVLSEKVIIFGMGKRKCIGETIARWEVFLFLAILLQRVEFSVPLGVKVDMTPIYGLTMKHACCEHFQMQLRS

MDA-MB-468 [2] = assay: Anticancer activity against human MDA-MB-468 cells assessed as inhibition of cell growth incubated for 48 hrs by SRB assay; format: functional; conditions: for CC50: read-out: LC50 (the source's name)
NCI-H226 [3] = assay: Anticancer activity against human NCI-H226 cells assessed as inhibition of cell growth incubated for 48 hrs by SRB assay; format: functional
MCF7 [4] = assay: Anticancer activity against human MCF7 cells assessed as cell growth at 10 uM incubated for 48 hrs by SRB assay; format: functional; conditions: read-out: Activity
MDA-MB-468 [5] = assay: Anticancer activity against human MDA-MB-468 cells assessed as cell growth at 1 uM incubated for 48 hrs by SRB assay; format: functional; conditions: read-out: Activity
CYP1A1 [6] = target: T1, CYP1A1; assay: Inhibition of recombinant CYP1A1 (unknown origin) assessed as residual enzyme activity using 7-ethoxyresorufin as substrate at 0.1 uM incubated for 15 mins by resorufin dye based spectrofluorimetry (reference value: 100%); format: ADME; conditions: recombinant CYP1A1, probe 7-ethoxyresorufin, read-out: Activity
NCI-H226 [7] = assay: Anticancer activity against human NCI-H226 cells assessed as cell growth at 10 uM incubated for 48 hrs by SRB assay; format: functional; conditions: read-out: Activity
MDA-MB-435 [8] = assay: Anticancer activity against human MDA-MB-435 cells assessed as cell growth at 0.1 uM incubated for 48 hrs by SRB assay; format: functional; conditions: read-out: Activity
MDA-MB-435 [9] = assay: Anticancer activity against human MDA-MB-435 cells assessed as inhibition of cell growth incubated for 48 hrs by SRB assay; format: functional
MCF7 [10] = assay: Anticancer activity against human MCF7 cells assessed as cell growth at 100 uM incubated for 48 hrs by SRB assay; format: functional; conditions: read-out: Activity
NCI-H226 [11] = assay: Anticancer activity against human NCI-H226 cells assessed as cell growth at 1 uM incubated for 48 hrs by SRB assay; format: functional; conditions: read-out: Activity
MCF7 [12] = assay: Anticancer activity against human MCF7 cells assessed as inhibition of cell growth incubated for 48 hrs by SRB assay; format: functional; conditions: for CC50: read-out: LC50 (the source's name)
MDA-MB-435 [13] = assay: Anticancer activity against human MDA-MB-435 cells assessed as cell growth at 1 uM incubated for 48 hrs by SRB assay; format: functional; conditions: read-out: Activity
Cytochrome P450 1A1 = target: T2, Cytochrome P450 1A1 (Homo sapiens, UniProt P04798); assay: Inhibition of recombinant CYP1A1 (unknown origin) assessed as decrease in EROD activity using 7-ethoxyresorufin as substrate incubated for 15 mins by resorufin dye based spectrofluorimetry; format: ADME
T2 sequence (P04798 whole entry): T1 sequence (P04798 whole entry)

MDA-MB-435 [14] = assay: Anticancer activity against human MDA-MB-435 cells assessed as cell growth at 100 uM incubated for 48 hrs by SRB assay; format: functional; conditions: read-out: Activity
NCI-H226 [15] = assay: Anticancer activity against human NCI-H226 cells assessed as cell growth at 100 uM incubated for 48 hrs by SRB assay; format: functional; conditions: read-out: Activity
MDA-MB-435 [16] = assay: Anticancer activity against human MDA-MB-435 cells assessed as cell growth at 10 uM incubated for 48 hrs by SRB assay; format: functional; conditions: read-out: Activity
MDA-MB-468 [17] = assay: Anticancer activity against human MDA-MB-468 cells assessed as cell growth at 100 uM incubated for 48 hrs by SRB assay; format: functional; conditions: read-out: Activity
MCF7 [18] = assay: Anticancer activity against human MCF7 cells assessed as cell growth at 1 uM incubated for 48 hrs by SRB assay; format: functional; conditions: read-out: Activity
MCF7 [19] = assay: Anticancer activity against human MCF7 cells assessed as cell growth at 0.1 uM incubated for 48 hrs by SRB assay; format: functional; conditions: read-out: Activity
CYP1A1 [20] = target: T1, CYP1A1; assay: Inhibition of recombinant CYP1A1 (unknown origin) assessed as residual enzyme activity using 7-ethoxyresorufin as substrate at 50 uM incubated for 15 mins by resorufin dye based spectrofluorimetry (reference value: 100%); format: ADME; conditions: recombinant CYP1A1, probe 7-ethoxyresorufin, read-out: Activity
MDA-MB-468 [21] = assay: Anticancer activity against human MDA-MB-468 cells assessed as cell growth at 0.1 uM incubated for 48 hrs by SRB assay; format: functional; conditions: read-out: Activity
NCI-H226 [22] = assay: Anticancer activity against human NCI-H226 cells assessed as cell growth at 0.1 uM incubated for 48 hrs by SRB assay; format: functional; conditions: read-out: Activity
CYP1A1 [23] = target: T1, CYP1A1; assay: Inhibition of recombinant CYP1A1 (unknown origin) assessed as residual enzyme activity using 7-ethoxyresorufin as substrate at 0.01 uM incubated for 15 mins by resorufin dye based spectrofluorimetry (reference value: 100%); format: ADME; conditions: recombinant CYP1A1, probe 7-ethoxyresorufin, read-out: Activity
CYP1A1 [24] = target: T1, CYP1A1; assay: Inhibition of recombinant CYP1A1 (unknown origin) assessed as residual enzyme activity using 7-ethoxyresorufin as substrate at 100 uM incubated for 15 mins by resorufin dye based spectrofluorimetry (reference value: 100%); format: ADME; conditions: recombinant CYP1A1, probe 7-ethoxyresorufin, read-out: Activity
MDA-MB-468 [25] = assay: Anticancer activity against human MDA-MB-468 cells assessed as cell growth at 10 uM incubated for 48 hrs by SRB assay; format: functional; conditions: read-out: Activity
CYP1A1 [26] = target: T1, CYP1A1; assay: Inhibition of recombinant CYP1A1 (unknown origin) assessed as residual enzyme activity using 7-ethoxyresorufin as substrate at 1 uM incubated for 15 mins by resorufin dye based spectrofluorimetry (reference value: 100%); format: ADME; conditions: recombinant CYP1A1, probe 7-ethoxyresorufin, read-out: Activity

## Cc1cc(C)n2ncc(C(=O)NCc3ccc(Cl)cc3)c2n1
CYP1A1 [1]
  activity at 0.25 h, 5 µM: 71.8%
MDA-MB-468 [2]
  GI50: 58.5 µM
  TGI: > 100 µM
  CC50: > 100 µM
NCI-H226 [3]
  GI50: > 100 µM
  LC50 (concentration killing 50% of cells): > 100 µM
  TGI: > 100 µM
MCF7 [4]
  growth at 10 µM: 80.4%
MDA-MB-468 [5]
  growth at 1 µM: 82.6%
CYP1A1 [6]
  activity at 0.25 h, 0.1 µM: 89.8%
NCI-H226 [7]
  growth at 10 µM: 82.6%
MDA-MB-435 [8]
  growth at 0.1 µM: 100%
MDA-MB-435 [9]
  GI50: > 100 µM
  LC50: > 100 µM
  TGI: > 100 µM
MCF7 [10]
  growth at 100 µM: 20.6%
NCI-H226 [11]
  growth at 1 µM: 87.8%
MCF7 [12]
  GI50: 57.7 µM
  TGI: > 100 µM
  CC50: > 100 µM
MDA-MB-435 [13]
  growth at 1 µM: 99.9%
Cytochrome P450 1A1
  IC50: 10 µM
MDA-MB-435 [14]
  growth at 100 µM: 70%
NCI-H226 [15]
  growth at 100 µM: 58.3%
MDA-MB-435 [16]
  growth at 10 µM: 98.1%
MDA-MB-468 [17]
  growth at 100 µM: 23.6%
MCF7 [18]
  growth at 1 µM: 88.2%
MCF7 [19]
  growth at 0.1 µM: 90.1%
CYP1A1 [20]
  activity at 0.25 h, 50 µM: 64.7%
MDA-MB-468 [21]
  growth at 0.1 µM: 90.9%
NCI-H226 [22]
  growth at 0.1 µM: 90.9%
CYP1A1 [23]
  activity at 0.25 h, 0.01 µM: 98.7%
CYP1A1 [24]
  activity at 0.25 h, 100 µM: 50.8%
MDA-MB-468 [25]
  growth at 10 µM: 77.6%

## Cc1sc2[nH]c(CNc3ccc(F)cc3)nc(=O)c2c1C
CYP1A1 [1]
  activity at 0.25 h, 5 µM: 23.9%
CYP1A1 [26]
  activity at 0.25 h, 1 µM: 46%
MDA-MB-468 [2]
  GI50: > 100 µM
  TGI: > 100 µM
  CC50: > 100 µM
NCI-H226 [3]
  GI50: > 100 µM
  LC50 (concentration killing 50% of cells): > 100 µM
  TGI: > 100 µM
MCF7 [4]
  growth at 10 µM: 84.1%
MDA-MB-468 [5]
  growth at 1 µM: 95%
CYP1A1 [6]
  activity at 0.25 h, 0.1 µM: 85.3%
NCI-H226 [7]
  growth at 10 µM: 77.9%
MDA-MB-435 [8]
  growth at 0.1 µM: 99.9%
MDA-MB-435 [9]
  GI50: > 100 µM
  LC50: > 100 µM
  TGI: > 100 µM
MCF7 [10]
  growth at 100 µM: 26.3%
NCI-H226 [11]
  growth at 1 µM: 86.9%
MCF7 [12]
  GI50: 65.8 µM
  TGI: > 100 µM
  CC50: > 100 µM
MDA-MB-435 [13]
  growth at 1 µM: 97.9%
Cytochrome P450 1A1
  IC50: 0.7 µM
MDA-MB-435 [14]
  growth at 100 µM: 83.5%
NCI-H226 [15]
  growth at 100 µM: 51.9%
MDA-MB-435 [16]
  growth at 10 µM: 94.6%
MDA-MB-468 [17]
  growth at 100 µM: 56.8%
MCF7 [18]
  growth at 1 µM: 94%
MCF7 [19]
  growth at 0.1 µM: 96.5%
CYP1A1 [20]
  activity at 0.25 h, 50 µM: 13.5%
MDA-MB-468 [21]
  growth at 0.1 µM: 99.2%
NCI-H226 [22]
  growth at 0.1 µM: 91.4%
CYP1A1 [23]
  activity at 0.25 h, 0.01 µM: 91.7%
CYP1A1 [24]
  activity at 0.25 h, 100 µM: 9.07%
MDA-MB-468 [25]
  growth at 10 µM: 94.4%

## Nc1cc(-c2cc3cc(F)ccc3[nH]2)ccc1F
CYP1A1 [1]
  activity at 0.25 h, 5 µM: 22.4%
CYP1A1 [26]
  activity at 0.25 h, 1 µM: 39.8%
MDA-MB-468 [2]
  GI50: 36.5 µM
  TGI: 84.7 µM
  CC50: > 100 µM
NCI-H226 [3]
  GI50: 62.3 µM
  LC50 (concentration killing 50% of cells): > 100 µM
  TGI: > 100 µM
MCF7 [4]
  growth at 10 µM: 55%
MDA-MB-468 [5]
  growth at 1 µM: 96.4%
CYP1A1 [6]
  activity at 0.25 h, 0.1 µM: 60.9%
NCI-H226 [7]
  growth at 10 µM: 63%
MDA-MB-435 [8]
  growth at 0.1 µM: 29.5%
MDA-MB-435 [9]
  GI50: < 0.1 µM
  LC50: > 100 µM
  TGI: > 100 µM
MCF7 [10]
  growth at 100 µM: 44.5%
NCI-H226 [11]
  growth at 1 µM: 83.2%
MCF7 [12]
  GI50: 69.5 µM
  TGI: > 100 µM
  CC50: > 100 µM
MDA-MB-435 [13]
  growth at 1 µM: 21.5%
Cytochrome P450 1A1
  IC50: 0.3 µM
MDA-MB-435 [14]
  growth at 100 µM: 14.9%
NCI-H226 [15]
  growth at 100 µM: 30.2%
MDA-MB-435 [16]
  growth at 10 µM: 17.7%
MDA-MB-468 [17]
  growth at 100 µM: -14.4%
MCF7 [18]
  growth at 1 µM: 63.9%
MCF7 [19]
  growth at 0.1 µM: 68.2%
CYP1A1 [20]
  activity at 0.25 h, 50 µM: 18.3%
MDA-MB-468 [21]
  growth at 0.1 µM: 100%
NCI-H226 [22]
  growth at 0.1 µM: 97.7%
CYP1A1 [23]
  activity at 0.25 h, 0.01 µM: 76.5%
CYP1A1 [24]
  activity at 0.25 h, 100 µM: 17.5%
MDA-MB-468 [25]
  growth at 10 µM: 50%
